According to ChEMBL document CHEMBL1641373, “Trishomocubane as a scaffold for the development of selective dopamine transporter (DAT) ligands” (Bioorg Med Chem Lett, 2011):

How the values were obtained:
[1] = target: Sodium-dependent serotonin transporter (Homo sapiens, UniProt P31645); experiment: Displacement of [3H]citalopram from human SERT expressed in HEK cells; type: cell-based, HEK293; settings: for inhibition: HEK293, concentration not given here
[2] = target: T1, Alpha-1B adrenergic receptor (Homo sapiens) (UniProt P35368); experiment: Inhibition of Alpha-1B adrenergic receptor at 10 uM
T1 sequence (whole entry): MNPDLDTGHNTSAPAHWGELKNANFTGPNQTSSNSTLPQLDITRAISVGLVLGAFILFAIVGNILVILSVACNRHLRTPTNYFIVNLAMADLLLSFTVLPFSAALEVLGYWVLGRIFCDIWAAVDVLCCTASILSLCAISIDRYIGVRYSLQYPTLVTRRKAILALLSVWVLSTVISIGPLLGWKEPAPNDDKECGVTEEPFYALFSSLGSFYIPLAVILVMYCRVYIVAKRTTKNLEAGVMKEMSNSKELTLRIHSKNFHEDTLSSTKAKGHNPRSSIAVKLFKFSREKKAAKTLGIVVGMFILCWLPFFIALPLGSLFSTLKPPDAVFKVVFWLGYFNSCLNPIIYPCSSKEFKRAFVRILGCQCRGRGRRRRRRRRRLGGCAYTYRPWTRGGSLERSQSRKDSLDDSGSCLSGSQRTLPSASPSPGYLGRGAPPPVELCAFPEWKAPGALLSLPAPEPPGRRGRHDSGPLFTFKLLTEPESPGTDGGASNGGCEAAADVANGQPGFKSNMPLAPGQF

[3] = target: Alpha-2A adrenergic receptor (Homo sapiens, UniProt P08913); experiment: Inhibition of alpha2A adrenergic receptor
[4] = target: Beta-2 adrenergic receptor (Homo sapiens) (UniProt P07550); experiment: Inhibition of beta2 adrenergic receptor at 10 uM
Chain of Beta-2 adrenergic receptor (Homo sapiens) (P07550 whole entry, looked up): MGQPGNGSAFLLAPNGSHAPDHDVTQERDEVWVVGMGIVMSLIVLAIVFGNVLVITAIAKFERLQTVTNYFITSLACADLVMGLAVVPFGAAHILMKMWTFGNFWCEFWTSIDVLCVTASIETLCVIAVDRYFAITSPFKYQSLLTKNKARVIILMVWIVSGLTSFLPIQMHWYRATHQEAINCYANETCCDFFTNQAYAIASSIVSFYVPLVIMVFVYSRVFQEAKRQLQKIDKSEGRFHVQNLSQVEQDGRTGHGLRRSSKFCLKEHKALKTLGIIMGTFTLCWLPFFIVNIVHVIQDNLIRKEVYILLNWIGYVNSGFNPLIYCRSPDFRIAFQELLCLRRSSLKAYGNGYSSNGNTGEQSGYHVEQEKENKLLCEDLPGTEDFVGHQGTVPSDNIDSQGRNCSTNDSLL

D(3) dopamine receptor [5] = target: T2, D(3) dopamine receptor (Homo sapiens, UniProt P35462); experiment: Inhibition of dopamine D3 receptor
T2 sequence (P35462 whole entry): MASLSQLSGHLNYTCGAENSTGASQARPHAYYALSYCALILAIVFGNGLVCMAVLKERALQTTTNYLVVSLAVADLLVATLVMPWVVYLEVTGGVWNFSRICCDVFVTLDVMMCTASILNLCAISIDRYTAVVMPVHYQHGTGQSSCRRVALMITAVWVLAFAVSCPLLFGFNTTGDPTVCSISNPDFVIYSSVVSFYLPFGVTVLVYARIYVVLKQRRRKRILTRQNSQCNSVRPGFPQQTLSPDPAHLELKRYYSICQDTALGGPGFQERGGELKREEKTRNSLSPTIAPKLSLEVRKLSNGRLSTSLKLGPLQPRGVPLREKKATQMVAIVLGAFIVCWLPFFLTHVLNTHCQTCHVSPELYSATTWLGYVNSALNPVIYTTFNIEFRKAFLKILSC

D(1B) dopamine receptor [6] = target: T3, D(1B) dopamine receptor (Homo sapiens, UniProt P21918); experiment: Inhibition of dopamine D5 receptor at 10 uM
T3 sequence (P21918 whole entry): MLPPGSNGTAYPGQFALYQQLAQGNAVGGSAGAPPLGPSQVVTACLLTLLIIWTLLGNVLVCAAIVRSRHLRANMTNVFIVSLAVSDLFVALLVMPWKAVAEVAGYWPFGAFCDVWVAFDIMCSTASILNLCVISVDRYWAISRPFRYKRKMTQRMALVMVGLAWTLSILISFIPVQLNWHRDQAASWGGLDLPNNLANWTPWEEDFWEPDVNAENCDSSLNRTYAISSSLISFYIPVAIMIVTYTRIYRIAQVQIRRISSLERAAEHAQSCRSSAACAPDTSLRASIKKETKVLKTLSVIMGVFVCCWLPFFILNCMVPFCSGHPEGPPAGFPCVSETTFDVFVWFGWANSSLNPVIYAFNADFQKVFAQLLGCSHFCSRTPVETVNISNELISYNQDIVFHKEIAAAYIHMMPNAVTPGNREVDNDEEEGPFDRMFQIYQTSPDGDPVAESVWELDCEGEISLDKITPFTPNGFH

Histamine H1 receptor [7] = target: T4, Histamine H1 receptor (Homo sapiens, UniProt P35367); experiment: Inhibition of H1 receptor
T4 sequence (P35367 whole entry): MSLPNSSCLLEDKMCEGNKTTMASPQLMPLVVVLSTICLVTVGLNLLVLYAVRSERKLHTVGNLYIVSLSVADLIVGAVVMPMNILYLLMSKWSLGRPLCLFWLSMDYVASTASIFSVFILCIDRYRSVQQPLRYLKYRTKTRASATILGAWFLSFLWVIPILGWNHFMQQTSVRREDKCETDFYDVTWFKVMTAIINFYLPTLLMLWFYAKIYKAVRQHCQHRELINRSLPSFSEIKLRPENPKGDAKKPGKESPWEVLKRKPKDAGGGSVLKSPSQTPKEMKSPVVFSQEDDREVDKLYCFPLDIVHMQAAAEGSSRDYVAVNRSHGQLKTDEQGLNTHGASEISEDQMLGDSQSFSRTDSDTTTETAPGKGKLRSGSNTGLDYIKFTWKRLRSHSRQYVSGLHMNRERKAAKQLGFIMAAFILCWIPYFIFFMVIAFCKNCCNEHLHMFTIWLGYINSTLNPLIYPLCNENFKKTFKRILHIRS

[8] = target: Histamine H3 receptor (Homo sapiens) (UniProt Q9Y5N1); experiment: Inhibition of H3 receptor at 10 uM
Chain of Histamine H3 receptor (Homo sapiens) (Q9Y5N1 whole entry): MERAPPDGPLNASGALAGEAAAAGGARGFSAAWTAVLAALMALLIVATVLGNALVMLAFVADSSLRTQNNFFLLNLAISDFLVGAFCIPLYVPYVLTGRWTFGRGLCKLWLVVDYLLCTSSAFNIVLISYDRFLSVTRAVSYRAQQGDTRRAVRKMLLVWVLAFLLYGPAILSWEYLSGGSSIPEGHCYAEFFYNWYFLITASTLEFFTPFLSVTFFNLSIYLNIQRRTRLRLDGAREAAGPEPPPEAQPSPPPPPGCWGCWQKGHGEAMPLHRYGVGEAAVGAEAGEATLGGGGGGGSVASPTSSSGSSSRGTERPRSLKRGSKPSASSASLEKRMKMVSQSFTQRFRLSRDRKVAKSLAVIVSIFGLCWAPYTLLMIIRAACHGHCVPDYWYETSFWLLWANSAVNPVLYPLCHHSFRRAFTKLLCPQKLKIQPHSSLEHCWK

[9] = target: 5-hydroxytryptamine receptor 1D (Homo sapiens) (UniProt P28221); experiment: Inhibition of 5HT1D receptor at 10 uM
Chain of 5-hydroxytryptamine receptor 1D (Homo sapiens) (P28221 whole entry): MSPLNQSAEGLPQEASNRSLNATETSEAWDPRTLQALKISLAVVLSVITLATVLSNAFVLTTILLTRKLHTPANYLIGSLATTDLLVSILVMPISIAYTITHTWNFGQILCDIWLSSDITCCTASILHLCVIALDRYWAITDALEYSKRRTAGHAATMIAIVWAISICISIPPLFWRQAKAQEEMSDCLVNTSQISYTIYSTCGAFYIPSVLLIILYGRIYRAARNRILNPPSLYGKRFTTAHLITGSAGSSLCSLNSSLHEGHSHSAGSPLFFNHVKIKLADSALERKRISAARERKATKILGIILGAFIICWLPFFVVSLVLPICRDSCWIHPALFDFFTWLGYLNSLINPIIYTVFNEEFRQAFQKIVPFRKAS

[10] = target: 5-hydroxytryptamine receptor 1E (Homo sapiens) (UniProt P28566); experiment: Inhibition of 5HT1E receptor at 10 uM
Chain of 5-hydroxytryptamine receptor 1E (Homo sapiens) (P28566 whole entry): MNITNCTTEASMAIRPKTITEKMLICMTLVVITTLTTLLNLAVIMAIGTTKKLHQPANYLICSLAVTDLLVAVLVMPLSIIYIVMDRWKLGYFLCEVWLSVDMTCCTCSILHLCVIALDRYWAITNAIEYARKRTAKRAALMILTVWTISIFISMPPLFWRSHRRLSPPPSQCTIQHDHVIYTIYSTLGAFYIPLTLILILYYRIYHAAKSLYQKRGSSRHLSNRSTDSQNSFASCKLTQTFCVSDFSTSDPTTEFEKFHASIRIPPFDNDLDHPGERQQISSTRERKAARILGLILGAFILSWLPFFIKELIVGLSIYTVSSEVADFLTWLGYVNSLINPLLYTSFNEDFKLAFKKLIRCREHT

[11] = target: T5, 5-hydroxytryptamine receptor 2A (Homo sapiens, UniProt P28223); experiment: Inhibition of 5HT2A receptor
T5 sequence (P28223 whole entry): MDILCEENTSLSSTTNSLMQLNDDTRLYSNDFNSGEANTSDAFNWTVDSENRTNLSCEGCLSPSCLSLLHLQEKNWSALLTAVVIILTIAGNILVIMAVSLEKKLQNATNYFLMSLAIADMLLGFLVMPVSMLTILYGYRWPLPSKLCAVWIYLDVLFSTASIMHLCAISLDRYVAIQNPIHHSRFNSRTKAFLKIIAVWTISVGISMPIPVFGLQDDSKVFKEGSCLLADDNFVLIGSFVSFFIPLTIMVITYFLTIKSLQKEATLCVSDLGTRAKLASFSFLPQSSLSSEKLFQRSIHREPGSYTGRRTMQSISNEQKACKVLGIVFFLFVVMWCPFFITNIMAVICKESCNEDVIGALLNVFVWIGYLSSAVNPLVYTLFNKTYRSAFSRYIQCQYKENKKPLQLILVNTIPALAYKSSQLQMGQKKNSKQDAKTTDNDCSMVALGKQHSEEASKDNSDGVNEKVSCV

[12] = target: T6, 5-hydroxytryptamine receptor 2B (Homo sapiens, UniProt P41595); experiment: Inhibition of 5HT2B receptor
T6 sequence (P41595 whole entry): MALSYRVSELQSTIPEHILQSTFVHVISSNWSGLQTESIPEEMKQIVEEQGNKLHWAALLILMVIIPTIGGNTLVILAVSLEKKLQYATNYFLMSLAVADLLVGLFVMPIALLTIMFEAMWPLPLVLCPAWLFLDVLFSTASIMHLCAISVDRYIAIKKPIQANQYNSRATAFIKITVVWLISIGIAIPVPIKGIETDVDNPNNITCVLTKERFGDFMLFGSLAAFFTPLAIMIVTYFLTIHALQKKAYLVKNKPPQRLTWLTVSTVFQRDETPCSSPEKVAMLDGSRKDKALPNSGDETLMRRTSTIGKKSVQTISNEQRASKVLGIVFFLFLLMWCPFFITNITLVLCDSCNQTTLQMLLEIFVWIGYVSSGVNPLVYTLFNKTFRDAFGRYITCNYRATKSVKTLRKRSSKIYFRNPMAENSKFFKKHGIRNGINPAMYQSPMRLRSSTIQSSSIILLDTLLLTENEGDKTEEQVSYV

[13] = target: T7, Muscarinic acetylcholine receptor M1 (Homo sapiens) (UniProt P11229); experiment: Inhibition of muscarinic M1 receptor at 10 uM
T7 sequence (whole entry): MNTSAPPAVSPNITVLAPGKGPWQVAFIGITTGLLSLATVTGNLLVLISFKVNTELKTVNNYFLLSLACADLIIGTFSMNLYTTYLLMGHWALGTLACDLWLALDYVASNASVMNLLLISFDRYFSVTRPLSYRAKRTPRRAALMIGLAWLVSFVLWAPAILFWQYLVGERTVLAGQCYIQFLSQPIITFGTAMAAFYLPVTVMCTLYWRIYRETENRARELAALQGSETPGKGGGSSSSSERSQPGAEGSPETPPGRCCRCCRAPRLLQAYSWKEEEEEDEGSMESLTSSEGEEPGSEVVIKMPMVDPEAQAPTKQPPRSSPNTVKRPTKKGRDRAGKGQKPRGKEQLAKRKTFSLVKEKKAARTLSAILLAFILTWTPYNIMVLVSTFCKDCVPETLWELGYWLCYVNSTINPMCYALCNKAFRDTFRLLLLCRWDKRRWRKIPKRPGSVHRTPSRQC

[14] = target: Muscarinic acetylcholine receptor M2 (Homo sapiens, UniProt P08172); experiment: Inhibition of muscarinic M2 receptor
[15] = target: Muscarinic acetylcholine receptor M3 (Homo sapiens, UniProt P20309); experiment: Inhibition of muscarinic M3 receptor
[16] = target: Muscarinic acetylcholine receptor M5 (Homo sapiens, UniProt P08912); experiment: Inhibition of muscarinic M5 receptor
[17] = target: 5-hydroxytryptamine receptor 6 (Homo sapiens, UniProt P50406); experiment: Inhibition of 5HT6 receptor
[18] = target: Muscarinic acetylcholine receptor M4 (Homo sapiens, UniProt P08173); experiment: Inhibition of muscarinic M4 receptor
[19] = target: T8, Alpha-2A adrenergic receptor (Homo sapiens) (UniProt P08913); experiment: Inhibition of alpha2A adrenergic receptor at 10 uM
T8 sequence (whole entry): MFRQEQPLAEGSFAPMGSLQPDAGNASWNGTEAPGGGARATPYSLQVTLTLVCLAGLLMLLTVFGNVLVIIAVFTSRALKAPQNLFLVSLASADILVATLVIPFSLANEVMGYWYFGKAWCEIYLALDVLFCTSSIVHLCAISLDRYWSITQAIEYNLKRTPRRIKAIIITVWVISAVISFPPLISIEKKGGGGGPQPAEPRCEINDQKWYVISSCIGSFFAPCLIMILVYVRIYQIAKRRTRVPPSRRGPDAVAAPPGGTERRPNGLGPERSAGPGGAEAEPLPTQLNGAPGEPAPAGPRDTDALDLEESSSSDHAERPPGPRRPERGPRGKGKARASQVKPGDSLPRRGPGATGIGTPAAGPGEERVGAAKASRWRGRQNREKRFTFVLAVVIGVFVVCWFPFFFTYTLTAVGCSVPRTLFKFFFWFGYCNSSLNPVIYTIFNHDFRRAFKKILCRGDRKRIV

[20] = target: Alpha-2C adrenergic receptor (Homo sapiens) (UniProt P18825); experiment: Inhibition of Alpha-2C adrenergic receptor at 10 uM
Chain of Alpha-2C adrenergic receptor (Homo sapiens) (P18825 whole entry): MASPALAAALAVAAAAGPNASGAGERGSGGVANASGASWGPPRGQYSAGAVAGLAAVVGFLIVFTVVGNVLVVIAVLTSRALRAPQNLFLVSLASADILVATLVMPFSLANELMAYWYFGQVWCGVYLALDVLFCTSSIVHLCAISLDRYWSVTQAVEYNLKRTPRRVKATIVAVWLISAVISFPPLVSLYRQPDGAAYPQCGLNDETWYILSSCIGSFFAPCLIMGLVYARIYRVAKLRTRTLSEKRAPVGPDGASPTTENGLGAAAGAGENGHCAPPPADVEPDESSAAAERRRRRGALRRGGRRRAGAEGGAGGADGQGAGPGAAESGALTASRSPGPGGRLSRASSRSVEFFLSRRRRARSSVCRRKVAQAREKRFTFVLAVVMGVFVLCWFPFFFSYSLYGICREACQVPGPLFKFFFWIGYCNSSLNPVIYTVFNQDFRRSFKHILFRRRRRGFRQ

Histamine H1 receptor [21] = target: T4, Histamine H1 receptor; experiment: Inhibition of H1 receptor at 10 uM
[22] = target: T5, 5-hydroxytryptamine receptor 2A; experiment: Inhibition of 5HT2A receptor at 10 uM
[23] = target: T6, 5-hydroxytryptamine receptor 2B; experiment: Inhibition of 5HT2B receptor at 10 uM
[24] = target: Alpha-2B adrenergic receptor (Homo sapiens) (UniProt P18089); experiment: Inhibition of alpha2B adrenergic receptor at 10 uM
Chain of Alpha-2B adrenergic receptor (Homo sapiens) (P18089 whole entry): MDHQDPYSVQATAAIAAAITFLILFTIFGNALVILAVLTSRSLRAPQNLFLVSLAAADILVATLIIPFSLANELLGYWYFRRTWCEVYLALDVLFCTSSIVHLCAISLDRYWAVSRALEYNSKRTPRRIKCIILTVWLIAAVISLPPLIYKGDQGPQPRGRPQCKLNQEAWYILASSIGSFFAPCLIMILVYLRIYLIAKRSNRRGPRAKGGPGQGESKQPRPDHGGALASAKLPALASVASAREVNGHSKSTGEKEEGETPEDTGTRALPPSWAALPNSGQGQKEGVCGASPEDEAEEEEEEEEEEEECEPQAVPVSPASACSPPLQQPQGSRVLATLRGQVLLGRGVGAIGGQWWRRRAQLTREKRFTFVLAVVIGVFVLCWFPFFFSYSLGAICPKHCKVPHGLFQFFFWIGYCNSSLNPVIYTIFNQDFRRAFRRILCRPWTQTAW

[25] = target: Alpha-2C adrenergic receptor (Homo sapiens, UniProt P18825); experiment: Inhibition of Alpha-2C adrenergic receptor
Chain of Alpha-2C adrenergic receptor (P18825 whole entry): as the sequence (P18825 whole entry) above

Rattus norvegicus = organism: Rattus norvegicus; experiment: Inhibition of BZP receptor in rat brain; type: tissue-based; settings: concentration not given here
[26] = Inhibition of GABAA receptor at 10 uM
D(3) dopamine receptor [27] = target: T2, D(3) dopamine receptor; experiment: Inhibition of dopamine D3 receptor at 10 uM
D(1B) dopamine receptor [28] = target: T3, D(1B) dopamine receptor; experiment: Inhibition of dopamine D5 receptor
Histamine H2 receptor = Histamine H2 receptor (Homo sapiens, UniProt P25021); experiment: Inhibition of H2 receptor at 10 uM

SMILES | Ki [1] [µM] | inhibition [2] [%] | inhibition [4] [%] | Ki (D(3) dopamine receptor [5]) [µM] | inhibition (D(1B) dopamine receptor [6]) [%] | inhibition [8] [%] | inhibition [9] [%] | inhibition [10] [%] | Ki [11] [µM] | Ki [12] [µM] | inhibition [13] [%] | inhibition [19] [%] | inhibition [20] [%] | inhibition [22] [%] | inhibition [23] [%] | inhibition [1] [%] | inhibition [24] [%] | inhibition (Rattus norvegicus) [%] | inhibition [26] [%] | also measured
Fc1cccc(CCN[C@H]2C3C4CC5C6C4CC3C6C52)c1 (some centres undefined) | > 10 | < 50 | < 50 | 5.21 | < 50 | < 50 | < 50 | < 50 | 6.02 | 6.98 | < 50 | – | – | – | – | – | – | – | – | Ki [3]: 7.61 µM; Ki (Histamine H1 receptor [7]): 2.38 µM; Ki [14]: 2.29 µM; Ki [15]: 1.39 µM; Ki [16]: 1.83 µM; Ki [17]: > 10 µM; Ki [18]: 0.705 µM
Fc1cccc(CN[C@H]2C3C4CC5C6C4CC3C6C52)c1 (some centres undefined) | > 10 | < 50 | < 50 | 7.16 | < 50 | < 50 | < 50 | < 50 | – | – | < 50 | < 50 | < 50 | < 50 | < 50 | – | – | – | – | inhibition (Histamine H1 receptor [21]): < 50%
CN(CCc1cccc(F)c1)[C@H]1C2C3CC4C5C3CC2C5C41 (some centres undefined) | – | < 50 | < 50 | > 10 | – | < 50 | < 50 | < 50 | > 10 | 6.09 | < 50 | < 50 | – | – | – | < 50 | < 50 | < 50 | < 50 | Ki [25]: 2.07 µM
CN(Cc1cccc(F)c1)[C@H]1C2C3CC4C5C3CC2C5C41 (some centres undefined) | – | < 50 | < 50 | – | – | < 50 | < 50 | < 50 | – | – | < 50 | < 50 | < 50 | < 50 | < 50 | < 50 | < 50 | < 50 | < 50 | inhibition (D(3) dopamine receptor [27]): < 50%; Ki (D(1B) dopamine receptor [28]): > 10 µM; inhibition (Histamine H2 receptor): < 50%
